Assay results taken from the supplement of paper PMC10307832.

These cell lines were tested with CN1CCC(CC1)OC2=CC(=C(C=C2)NC3=NC=C4C(=N3)N(C(=O)N4C)C5CCCC5)OC [AZ3146] + CC1(C)CCC(c2ccc(Cl)cc2)=C(CN2CCN(c3ccc(C(=O)NS(=O)(=O)c4ccc(N[C@H](CCN5CCOCC5)CSc5ccccc5)c(S(=O)(=O)C(F)(F)F)c4)cc3)CC2)C1 [Navitoclax] (partner 0.5 µM) (assay: relative viability (nuclei count vs DMSO), 5 days (fraction); higher = more cells survive). Settings: first compound 0.08 µM.
Method in brief: (§1)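 Relative viability was taken as the ratio of nuclei in treated wells to nuclei in vehicle wells. Lung cancer cell lines in 1536-well plates received compounds by pin tool one day after seeding, either one drug alone or a fixed anchor-drug dose plus five library-drug doses (not always all listed) in √10 steps. Nuclei were counted on 4× images after 5 days of treatment, and values are medians of duplicate plates.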
Cell Line NCI-H1793 has a relative viability of 0.437. Work on RERF-LC-KJ yielded a relative viability of 0.872. EMC-BAC-2 was tested, and the relative viability was 1.07. NCI-H1651 showed a relative viability of 1.03. For NCI-H2170, the relative viability was 0.705. NCI-H2009 gave a relative viability of 1.02. For SK-MES-1, the relative viability was 1.32. With SW 1573 the relative viability was 0.997.

Same assay, conditions: first compound 0.253 µM
Cell Line NCI-H1793 has a relative viability of 0.311. RERF-LC-KJ showed a relative viability of 0.878. EMC-BAC-2 showed a relative viability of 1.23. In the case of NCI-H1651, the relative viability is reported as 1.07. NCI-H2170 gave a relative viability of 0.528. Cell Line NCI-H2009 has a relative viability of 1.27. SK-MES-1 gave a relative viability of 1.22. SW 1573 gave a relative viability of 1.1.

Same assay, conditions: first compound 0.8 µM
Work on NCI-H1793 yielded a relative viability of 0.46. RERF-LC-KJ showed a relative viability of 1.04. Cell Line EMC-BAC-2 has a relative viability of 1.25. LCLC-97TM1 was tested, and the relative viability was 0.541. NCI-H1651 was tested, and the relative viability was 1. In the case of NCI-H2170, the relative viability is reported as 0.632. With NCI-H2009 the relative viability was 1.2. SK-MES-1 gave a relative viability of 1.3. Work on SW 1573 yielded a relative viability of 1.04.

Same assay, conditions: first compound 2.53 µM
NCI-H1793 showed a relative viability of 0.492. In the case of RERF-LC-KJ, the relative viability is reported as 0.787. With EMC-BAC-2 the relative viability was 1.21. With LCLC-97TM1 the relative viability was 0.361. Cell Line NCI-H1651 has a relative viability of 0.995. For NCI-H2170, the relative viability was 0.576. NCI-H2009 showed a relative viability of 1.25. SK-MES-1 gave a relative viability of 1.35. SW 1573 was tested, and the relative viability was 0.93.

Same assay, conditions: first compound 8 µM
For NCI-H1793, the relative viability was 0.436. Cell Line RERF-LC-KJ has a relative viability of 0.839. Work on EMC-BAC-2 yielded a relative viability of 1.26. Cell Line LCLC-97TM1 has a relative viability of 0.544. NCI-H1651 was tested, and the relative viability was 1.1. In the case of NCI-H2170, the relative viability is reported as 0.645. Cell Line NCI-H2009 has a relative viability of 1.03. In the case of SK-MES-1, the relative viability is reported as 1.35. SW 1573 was tested, and the relative viability was 0.895.

Each cell line was assayed with CN1CCC(CC1)OC2=CC(=C(C=C2)NC3=NC=C4C(=N3)N(C(=O)N4C)C5CCCC5)OC [AZ3146] + COc1cc2c(Oc3ccc(NC(=O)C4(C(=O)Nc5ccc(F)cc5)CC4)cc3F)ccnc2cc1OCCCN1CCOCC1 [Foretinib] (partner 0.25 µM) in the same assay as above. Settings: first compound 0.08 µM.
Method in brief: as §1
For NCI-H1793, the relative viability was 0.672. RERF-LC-KJ gave a relative viability of 0.851. Cell Line EMC-BAC-2 has a relative viability of 1.06. With LCLC-97TM1 the relative viability was 0.936. For NCI-H1651, the relative viability was 0.729. NCI-H2170 showed a relative viability of 1.09. NCI-H2009 was tested, and the relative viability was 1.11. Work on SK-MES-1 yielded a relative viability of 0.979. With SW 1573 the relative viability was 0.897.

Same assay, conditions: first compound 0.253 µM
Cell Line NCI-H1793 has a relative viability of 0.699. Cell Line RERF-LC-KJ has a relative viability of 0.862. Work on EMC-BAC-2 yielded a relative viability of 1.04. Cell Line LCLC-97TM1 has a relative viability of 0.96. Cell Line NCI-H1651 has a relative viability of 0.726. Cell Line NCI-H2170 has a relative viability of 0.974. NCI-H2009 showed a relative viability of 1.28. SK-MES-1 was tested, and the relative viability was 0.832. In the case of SW 1573, the relative viability is reported as 0.732.

Same assay, conditions: first compound 0.8 µM
With NCI-H1793 the relative viability was 0.755. In the case of RERF-LC-KJ, the relative viability is reported as 0.895. Cell Line EMC-BAC-2 has a relative viability of 1.18. For LCLC-97TM1, the relative viability was 0.879. In the case of NCI-H1651, the relative viability is reported as 0.809. For NCI-H2170, the relative viability was 0.983. With NCI-H2009 the relative viability was 1.26. SK-MES-1 was tested, and the relative viability was 0.974. SW 1573 showed a relative viability of 0.983.

Same assay, conditions: first compound 2.53 µM
NCI-H1793 showed a relative viability of 0.686. RERF-LC-KJ showed a relative viability of 0.942. Work on EMC-BAC-2 yielded a relative viability of 1.1. In the case of LCLC-97TM1, the relative viability is reported as 0.942. For NCI-H1651, the relative viability was 0.849. For NCI-H2170, the relative viability was 1.04. Work on NCI-H2009 yielded a relative viability of 1.22. SK-MES-1 was tested, and the relative viability was 1. For SW 1573, the relative viability was 1.15.

Same assay, conditions: first compound 8 µM
Cell Line NCI-H1793 has a relative viability of 0.316. For RERF-LC-KJ, the relative viability was 0.844. For EMC-BAC-2, the relative viability was 1.03. LCLC-97TM1 gave a relative viability of 0.806. NCI-H1651 was tested, and the relative viability was 0.836. With NCI-H2170 the relative viability was 1.03. Cell Line NCI-H2009 has a relative viability of 0.957. SK-MES-1 gave a relative viability of 0.957. SW 1573 was tested, and the relative viability was 0.884.

These cell lines were tested with CN1CCC(CC1)OC2=CC(=C(C=C2)NC3=NC=C4C(=N3)N(C(=O)N4C)C5CCCC5)OC [AZ3146] + Nc1nc2[nH]cc(CCc3ccc(C(=O)N[C@@H](CCC(=O)O)C(=O)O)cc3)c2c(=O)[nH]1 [Pemetrexed] (partner 0.2 µM) in the same assay as above. Settings: first compound 0.08 µM.
Method in brief: as §1
For NCI-H1793, the relative viability was 1.02. For RERF-LC-KJ, the relative viability was 0.43. Cell Line EMC-BAC-2 has a relative viability of 0.379. LCLC-97TM1 gave a relative viability of 0.142. NCI-H1651 was tested, and the relative viability was 0.58. NCI-H2170 was tested, and the relative viability was 0.269. Work on NCI-H2009 yielded a relative viability of 1.05. SK-MES-1 showed a relative viability of 1.02. SW 1573 showed a relative viability of 0.815.

Same assay, conditions: first compound 0.253 µM
Cell Line NCI-H1793 has a relative viability of 0.792. For RERF-LC-KJ, the relative viability was 0.485. In the case of EMC-BAC-2, the relative viability is reported as 0.442. LCLC-97TM1 was tested, and the relative viability was 0.184. NCI-H1651 was tested, and the relative viability was 0.579. NCI-H2170 gave a relative viability of 0.248. For NCI-H2009, the relative viability was 0.996. Work on SK-MES-1 yielded a relative viability of 0.976. Work on SW 1573 yielded a relative viability of 0.844.

Same assay, conditions: first compound 0.8 µM
For NCI-H1793, the relative viability was 0.565. RERF-LC-KJ was tested, and the relative viability was 0.461. With EMC-BAC-2 the relative viability was 0.433. With LCLC-97TM1 the relative viability was 0.233. In the case of NCI-H1651, the relative viability is reported as 0.463. Cell Line NCI-H2170 has a relative viability of 0.26. For NCI-H2009, the relative viability was 1.04. For SK-MES-1, the relative viability was 0.965. SW 1573 showed a relative viability of 0.861.

Same assay, conditions: first compound 2.53 µM
Cell Line NCI-H1793 has a relative viability of 1.16. RERF-LC-KJ was tested, and the relative viability was 0.473. Work on EMC-BAC-2 yielded a relative viability of 0.466. LCLC-97TM1 was tested, and the relative viability was 0.192. With NCI-H1651 the relative viability was 0.569. In the case of NCI-H2170, the relative viability is reported as 0.268. NCI-H2009 gave a relative viability of 0.989. For SK-MES-1, the relative viability was 0.997. SW 1573 was tested, and the relative viability was 0.82.

Same assay, conditions: first compound 8 µM
Cell Line NCI-H1793 has a relative viability of 0.51. Work on RERF-LC-KJ yielded a relative viability of 0.488. EMC-BAC-2 gave a relative viability of 0.411. For LCLC-97TM1, the relative viability was 0.163. NCI-H1651 was tested, and the relative viability was 0.595. Cell Line NCI-H2170 has a relative viability of 0.281. Work on NCI-H2009 yielded a relative viability of 1.03. SK-MES-1 gave a relative viability of 0.792. In the case of SW 1573, the relative viability is reported as 0.228.

The cell lines below were run with CCOC(=O)CCNc1cc(N2CCc3ccccc3CC2)nc(-c2ccccn2)n1 [GSK-J4] + CC1(C)CCC(c2ccc(Cl)cc2)=C(CN2CCN(c3ccc(C(=O)NS(=O)(=O)c4ccc(N[C@H](CCN5CCOCC5)CSc5ccccc5)c(S(=O)(=O)C(F)(F)F)c4)cc3)CC2)C1 [Navitoclax] (partner 0.5 µM) in the same assay as above. Settings: first compound 0.5 µM.
Method in brief: as §1
NCI-H1793 showed a relative viability of 0.389. Work on RERF-LC-KJ yielded a relative viability of 0.756. EMC-BAC-2 gave a relative viability of 1.17. With NCI-H1651 the relative viability was 0.999. In the case of NCI-H2170, the relative viability is reported as 0.585. Work on NCI-H2009 yielded a relative viability of 1.14. SK-MES-1 was tested, and the relative viability was 1.13. Work on SW 1573 yielded a relative viability of 0.941.

Same assay, conditions: first compound 1.581 µM
NCI-H1793 showed a relative viability of 0.473. RERF-LC-KJ gave a relative viability of 1.01. With EMC-BAC-2 the relative viability was 1.07. NCI-H1651 showed a relative viability of 0.942. In the case of NCI-H2170, the relative viability is reported as 0.547. Cell Line NCI-H2009 has a relative viability of 1.12. SK-MES-1 gave a relative viability of 1.03. With SW 1573 the relative viability was 1.1.

Same assay, conditions: first compound 5 µM
With NCI-H1793 the relative viability was 0.379. For RERF-LC-KJ, the relative viability was 0.881. Cell Line EMC-BAC-2 has a relative viability of 1.24. LCLC-97TM1 gave a relative viability of 0.43. In the case of NCI-H1651, the relative viability is reported as 1.03. Work on NCI-H2170 yielded a relative viability of 0.678. NCI-H2009 gave a relative viability of 0.951. Cell Line SK-MES-1 has a relative viability of 1.25. With SW 1573 the relative viability was 0.951.

Same assay, conditions: first compound 15.81 µM
NCI-H1793 showed a relative viability of 0.307. RERF-LC-KJ gave a relative viability of 0.795. EMC-BAC-2 gave a relative viability of 1.04. LCLC-97TM1 gave a relative viability of 0.178. Work on NCI-H1651 yielded a relative viability of 1.05. With NCI-H2170 the relative viability was 0.44. NCI-H2009 gave a relative viability of 1.14. Work on SK-MES-1 yielded a relative viability of 1.01. For SW 1573, the relative viability was 0.823.

Same assay, conditions: first compound 50 µM
Work on NCI-H1793 yielded a relative viability of 0.273. Work on RERF-LC-KJ yielded a relative viability of 0.763. Work on EMC-BAC-2 yielded a relative viability of 1.13. With LCLC-97TM1 the relative viability was 0.307. Work on NCI-H1651 yielded a relative viability of 0.958. NCI-H2170 gave a relative viability of 0.48. Work on NCI-H2009 yielded a relative viability of 0.882. Work on SK-MES-1 yielded a relative viability of 0.857. Cell Line SW 1573 has a relative viability of 0.705.
